Reference: patent US6849612B2, “Oligonucleotide modulation of cell adhesion” (ISIS Pharmaceuticals, Inc., priority 1993, dated 2005)
Strand notation (5' to 3'): a small letter for the sugar, then the base; units joined by * are phosphorothioate-linked, units joined directly phosphodiester-linked; [ ] holds rarer units or linkages, { } end groups; capitals alone tell only the bases. d = 2'-deoxy (DNA)

How the values were obtained:
leukocyte migration = assay: Leukocyte migration into carrageenan-soaked sponges in mice; format: in vivo, mouse; settings: 3 mg/kg oral, after surgery, 6-8 hours later and at 21 hours; vs vehicle control
ICAM-1 [1] = assay: ELISA screening for ICAM-1 expression in interleukin-1β-stimulated cells (HUVEC and A549); format: cell-based, human; settings: interleukin-1β-stimulated cells, two cell lines (HUVEC, A549)
ICAM-1 [2] = assay: ELISA of ICAM-1 expression in A431 cells; format: cell-based; settings: human epidermal carcinoma A431 cells
Description: (§1) Expression of ICAM-1, VCAM-1 and ELAM-1 on the surface of cells can be quantitated using specific monoclonal antibodies in an ELISA. Cells are grown to confluence in 96 well microtiter plates. The cells are stimulated with either interleukin-1 or tumor necrosis factor for 4 to 8 hours to quantitate ELAM-1 and 8 to 24 hours to quantitate ICAM-1 and VCAM-1. Following the appropriate incubation time with the cytokine, the cells are gently washed three times with a buffered isotonic solution containing calcium and magnesium such as Dulbecco's phosphate buffered saline (D-PBS). The cells are then directly fixed on the microtiter plate with 1 to 2% paraformaldehyde diluted in D-PBS for 20 minutes at 25° C. The cells are washed again with D-PBS three times. Nonspecific binding sites on the microtiter plate are blocked with 2% bovine serum albumin in D-PBS for 1 hour at 37° C. Cells are incubated with the appropriate monoclonal antibody diluted in blocking solution for 1 hour at 37° C. Unbound antibody is removed by washing the cells three times with D-PBS. Antibody bound to the cells is detected by incubation with a 1:1000 dilution of biotinylated goat anti-mouse IgG (Bethesda Research Laboratories, Gaithersburg, Md.) in blocking solution for 1 hour at 37° C. Cells are washed three times with D-PBS and then incubated with a 1:1000 dilution of streptavidin conjugated to β-galactosidase (Bethesda Research Laboratories) for 1 hour at 37° C. The cells are washed three times with D-PBS for 5 minutes each. The amount of β-galactosidase bound to the specific monoclonal antibody is determined by developing the plate in a solution of 3.3 mM chlorophenolred-β-D-galactopyranoside, 50 mM sodium phosphate, 1.5 mM MgCl2; pH=7.2 for 2 to 15 minutes at 37° C. The concentration of the product is determined by measuring the absorbance at 575 nm in an ELISA microtiter plate reader. […]
(§2) Cells grown in 96-well plates were washed three times with Opti-MEM (GIBCO, Grand Island, N.Y.) prewarmed to 37° C. […] ICAM-1 expression was determined as described in Example 1. […]

ICAM-1 [3] = assay: ELISA of ICAM-1 expression in primary human keratinocytes; format: cell-based
Description: as §1, §2

ICAM-1 [4] = assay: ELISA of ICAM-1 cell surface expression in C8161 human melanoma cells; format: cell-based; settings: 15 μg/ml Lipofectin, 5 ng/ml TNF-α 16 hours
Description: (§3) ICAM-1 expression on the cell surface was measured by ELISA. Cells were treated with increasing concentrations of antisense oligonucleotides in the presence of 15 μg/ml Lipofectin for 4 hours at 37° C. ICAM-1 expression was induced by incubation with 5 ng/ml TNF-α for 16 hours. Cells were washed 3× in DPBS and fixed for 20 minutes in 2% formaldehyde. Cells were washed in DPBS, blocked with 2% BSA for 1 hour at 37° C. and incubated with ICAM-1 monoclonal antibody 84H10 (AMAC, Inc., Westbrook, Me.). Detection of bound antibody was determined by incubation with a biotinylated goat anti-mouse IgG followed by incubation with […] streptavidin and developed with chlorophenol red-β-D-galactopyranoside and quantified by absorbance at 575 nm. ICAM-1 mRNA levels were measured by Northern blot analysis.
The data were expressed as percentage of control activity, calculated as follows: (ICAM-1 expression for oligonucleotide-treated, cytokine-induced cells)−(basal ICAM-1 expression)/(ICAM-1 cytokine-induced expression)−(basal ICAM-1 expression)×100.

ICAM-1 mRNA = assay: Northern blot of ICAM-1 mRNA in C8161 cells; format: cell-based, human; settings: Northern blot analysis
Description: as §3

[5] = system: C8161 human melanoma cells; assay: Experimental metastasis assay of oligonucleotide-treated C8161 cells in athymic nude mice; format: in vivo
Description: To evaluate the role of ICAM-1 in metastasis, experimental metastasis assays were performed by injecting 1×10^5 C8161 cells into the lateral tail vein of athymic nude mice. […] Assoc. Cancer Res. 1990, 13, 353].
After 4 weeks, mice were sacrificed, organs were fixed in Bouin's fixative and metastatic lesions on lungs were scored with the aid of a dissecting microscope. Four-week-old female athymic nude mice (Harlan Sprague Dawley) were used. Animals were maintained under the guidelines of the NIH. Groups of 4-8 mice each were tested in experimental metastasis assays.
Treatment of C8161 cells with antisense oligonucleotides ISIS 1570 and ISIS 2302, complementary to ICAM-1, was performed in the presence of the cationic lipid, Lipofectin (Gibco/BRL, Gaithersburg, Md.). Antisense oligonucleotides were synthesized as described in Example 3. Cells were seeded in 60 mm tissue culture dishes at 10^6 cells/ml and incubated at 37 °C for 3 days, washed with OPTI-MEM (Gibco/BRL) 3 times and 100 μl of OPTI-MEM medium was added to each well. 0.5 μM oligonucleotide and 15 μg/ml lipofectin were mixed at room temperature for 15 minutes. 25 μl of the oligonucleotide-lipofectin mixture was added to the appropriate dishes and incubated at 37° C. for 4 hours. The oligonucleotide-lipofectin mixture was removed and replaced with DME-F12 medium containing 10% fetal calf serum. After 4 hours, 500 U/ml TNF-α was added to the appropriate wells and incubated for 18 hours at which time cells were removed from the plates, counted and injected into athymic nude mice.

[6] = system: human corneal donor buttons; assay: Human corneal donor buttons stored in OPTISOL with ISIS 2302
Description: Eleven human corneal donor buttons were stored in TM OPTISOL™ for 8 days and used as the control group. Additional corneal buttons were used for the experimental group and were stored in OPTISOL™ with either 200 μg/ml ISIS 2302 (n=10) or 400 μg/ml ISIS 2302 (n=8). Endothelial cell density was evaluated by specular microscopy. After 8 days, all corneas were prepared for SEM and photographs were taken of endothelial and epithelial surfaces.

| Compound | reduction in mean leukocyte count (leukocyte migration) [%] | inhibition of ICAM-1 expression, relative activity in words (ICAM-1 [1]) | inhibition of ICAM-1 expression (ICAM-1 [2]) | inhibition of ICAM-1 expression (ICAM-1 [3]) | cell surface expression of ICAM-1 (ICAM-1 [4]) | ICAM-1 mRNA levels (ICAM-1 mRNA) | No. Lung Metastases per Mouse (Mean ± S.E.M.) ([5]; C8161 cells treated with 0.5 μM oligonucleotide + Lipofectin + TNF-α, Lipofectin + TNF-α 81 ± 8) | No. Lung Metastases per Mouse (Mean ± S.E.M.) ([5]; C8161 cells treated with 0.5 μM oligonucleotide + Lipofectin, no TNF-α, Lipofectin only 64 ± 13) | toxicity to stored human corneas [6] | endothelial cell density by specular microscopy ([6]; 200 or 400 μg/ml in OPTISOL, after 2 or 8 days of storage, vs control) |
| --- | --- | --- | --- | --- | --- | --- | --- | --- | --- | --- |
| COc1ccc2c(c1)c(CC(=O)O)c(C)n2C(=O)c1ccc(Cl)cc1 [indomethacin] | 79 |  |  |  |  |  |  |  |  |  |
| ISIS 2302: P=S, human ICAM-1 3′-Untranslated (2114-2133), SEQ ID NO 22 (antisense dG*dC*dC*dC*dA*dA*dG*dC*dT*dG*dG*dC*dA*dT*dC*dC*dG*dT*dC*dA) |  | most active of the series, with activity comparable to that of ISIS 1939 | inhibit ICAM-1 expression | inhibit ICAM-1 expression | decreased cell surface expression of ICAM-1 | markedly reduced | 31 ± 8 | 23 ± 6 | not markedly toxic | no difference in endothelial cell density |
